ChEMBL document CHEMBL4699583 (J Med Chem, 2020)
Active and inactive are the calls of the source. The calls are words filed in the database; no cut-off is given here.

How the values were obtained:
[1] = target: Vasopressin V1a receptor (Homo sapiens) (UniProt P37288); assay: Agonist activity at human vasopressin V1a receptor at 2 uM by cell based calcium flux assay; type: functional
[2] = target: Beta-2 adrenergic receptor (Homo sapiens) (UniProt P07550); assay: Agonist activity at human beta-2 adrenergic receptor at 2 uM by cell based cAMP assay; type: functional
[3] = target: 5-hydroxytryptamine receptor 2B (Homo sapiens) (UniProt P41595); assay: Antagonist activity at human 5HT2B receptor at 2 uM by cell based calcium flux assay; type: functional
[4] = target: Muscarinic acetylcholine receptor M1 (Homo sapiens) (UniProt P11229); assay: Antagonist activity at human muscarinic acetylcholine receptor M1 at 2 uM by cell based calcium flux assay; type: functional
[5] = target: Alpha-1A adrenergic receptor (Homo sapiens) (UniProt P35348); assay: Agonist activity at human ADRA1A at 2 uM by cell based calcium flux assay; type: functional
[6] = target: Muscarinic acetylcholine receptor M2 (Homo sapiens) (UniProt P08172); assay: Agonist activity at human muscarinic acetylcholine receptor M2 at 2 uM by cell based cAMP assay; type: functional
[7] = target: Amine oxidase [flavin-containing] A (Homo sapiens, UniProt P21397); assay: Inhibition of human MAOA at 2 uM
[8] = target: Delta-type opioid receptor (Homo sapiens) (UniProt P41143); assay: Antagonist activity at human delta opioid receptor at 2 uM by cell based cAMP assay; type: functional
[9] = target: Delta-type opioid receptor (Homo sapiens) (UniProt P41143); assay: Agonist activity at human delta opioid receptor at 2 uM by cell based cAMP assay; type: functional
[10] = target: Vascular endothelial growth factor receptor 2 (Homo sapiens) (UniProt P35968); assay: Inhibition of human VEGFR2 at 2 uM
[11] = target: Muscarinic acetylcholine receptor M3 (Homo sapiens) (UniProt P20309); assay: Agonist activity at human muscarinic acetylcholine receptor M3 at 2 uM by cell based calcium flux assay; type: functional
[12] = target: 5-hydroxytryptamine receptor 1B (Homo sapiens) (UniProt P28222); assay: Agonist activity at human 5HT1B receptor at 2 uM by cell based cAMP assay; type: functional
[13] = target: Histamine H2 receptor (Homo sapiens) (UniProt P25021); assay: Antagonist activity at human histamine H2 receptor at 2 uM by cell based cAMP assay; type: functional
[14] = target: Androgen receptor (Homo sapiens) (UniProt P10275); assay: Antagonist activity at human androgen receptor at 2 uM by cell based nuclear translocation assay
[15] = target: Sodium-dependent noradrenaline transporter (Homo sapiens) (UniProt P23975); assay: Inhibition of human norepinephrine transporter at 2 uM by cell based assay
[16] = target: 5-hydroxytryptamine receptor 1A (Homo sapiens) (UniProt P08908); assay: Agonist activity at human 5HT1A receptor at 2 uM by cell based cAMP assay; type: functional
[17] = target: T1, Voltage-gated potassium channel, IKs; KCNQ1(Kv7.1)/KCNE1(MinK) (Homo sapiens, UniProt P51787+P15382); assay: Activation of human KvLQT1/mink at 2 uM by thallium flux assay; type: protein-complex assay
[18] = target: D(2) dopamine receptor (Homo sapiens) (UniProt P14416); assay: Antagonist activity at human dopamine D2S receptor at 2 uM by cell based cAMP assay; type: functional
[19] = Kinetic solubility of compound in PBS at pH 7.4 incubated for 24 hrs under shaking condition by UPLC-MS analysis; type: physicochemical; conditions: buffer, pH 7.4, 24 h
[20] = target: T1, Voltage-gated potassium channel, IKs; KCNQ1(Kv7.1)/KCNE1(MinK); assay: Inhibition of human KvLQT1/mink at 2 uM by thallium flux assay; type: protein-complex assay
[21] = target: DNA topoisomerase 2-alpha (Homo sapiens, UniProt P11388); assay: Poison activity at human topoisomerase 2alpha assessed as DNA cleavage by measuring linear DNA formation using supercoiled pBR322 DNA as substrate at 5 to 200 uM measured after 6 mins by agarose gel electrophoresis method; conditions: 0.1 h, dose 5-200 µM
[22] = target: Glucocorticoid receptor (Homo sapiens) (UniProt P04150); assay: Antagonist activity at human glucocorticoid receptor at 2 uM by cell based assay
[23] = target: D(1A) dopamine receptor (Homo sapiens) (UniProt P21728); assay: Antagonist activity at human dopamine D1 receptor at 2 uM by cell based cAMP assay; type: functional
[24] = target: Acetylcholinesterase (Homo sapiens) (UniProt P22303); assay: Inhibition of human AChE at 2 uM
[25] = target: Mu-type opioid receptor (Homo sapiens) (UniProt P35372); assay: Agonist activity at human mu opioid receptor at 2 uM by cell based cAMP assay; type: functional
[26] = target: Muscarinic acetylcholine receptor M1 (Homo sapiens) (UniProt P11229); assay: Agonist activity at human muscarinic acetylcholine receptor M1 at 2 uM by cell based calcium flux assay; type: functional
[27] = target: 3',5'-cyclic-AMP phosphodiesterase 4D (Homo sapiens) (UniProt Q08499); assay: Inhibition of human PDE4D2 at 2 uM
[28] = target: Prostaglandin G/H synthase 2 (Homo sapiens) (UniProt P35354); assay: Inhibition of human COX2 at 2 uM
[29] = target: Cannabinoid receptor 2 (Homo sapiens) (UniProt P34972); assay: Agonist activity at human cannabinoid receptor 2 at 2 uM by cell based cAMP assay; type: functional
[30] = target: Endothelin-1 receptor (Homo sapiens) (UniProt P25101); assay: Agonist activity at human endothelin 1 receptor at 2 uM by cell based calcium flux assay; type: functional
[31] = target: Vasopressin V1a receptor (Homo sapiens) (UniProt P37288); assay: Antagonist activity at human vasopressin V1a receptor at 2 uM by cell based calcium flux assay; type: functional
[32] = target: Muscarinic acetylcholine receptor M3 (Homo sapiens) (UniProt P20309); assay: Antagonist activity at human muscarinic acetylcholine receptor M3 at 2 uM by cell based calcium flux assay; type: functional
[33] = target: Beta-1 adrenergic receptor (Homo sapiens) (UniProt P08588); assay: Antagonist activity at human adrenergic beta1 receptor at 2 uM by cell based cAMP assay; type: functional
[34] = target: T2, Neuronal acetylcholine receptor; alpha4/beta2 (Homo sapiens) (UniProt P17787+P43681); assay: Activation of human alpha4beta2 nACHR at 2 uM by cell based calcium flux assay
[35] = target: Beta-2 adrenergic receptor (Homo sapiens) (UniProt P07550); assay: Antagonist activity at human beta-2 adrenergic receptor at 2 uM by cell based cAMP assay; type: functional
[36] = target: 5-hydroxytryptamine receptor 1B (Homo sapiens) (UniProt P28222); assay: Antagonist activity at human 5HT1B receptor at 2 uM by cell based cAMP assay; type: functional
[37] = target: Histamine H1 receptor (Homo sapiens) (UniProt P35367); assay: Agonist activity at human histamine H1 receptor at 2 uM by cell based calcium flux assay; type: functional
[38] = target: T2, Neuronal acetylcholine receptor; alpha4/beta2 (Homo sapiens); assay: Inhibition of human alpha4beta2 nACHR at 2 uM by cell based calcium flux assay
[39] = target: Beta-1 adrenergic receptor (Homo sapiens) (UniProt P08588); assay: Agonist activity at human adrenergic beta1 receptor at 2 uM by cell based cAMP assay; type: functional
[40] = target: Voltage-dependent L-type calcium channel subunit alpha-1C (Homo sapiens, UniProt Q13936); assay: Inhibition of human L-type calcium channel Cav1.2 at 2 uM by cell based assay
[41] = target: Cannabinoid receptor 2 (Homo sapiens) (UniProt P34972); assay: Antagonist activity at human cannabinoid receptor 2 at 2 uM by cell based cAMP assay; type: functional
[42] = target: Endothelin-1 receptor (Homo sapiens) (UniProt P25101); assay: Antagonist activity at human endothelin 1 receptor at 2 uM by cell based calcium flux assay; type: functional
[43] = Clearance in C57B6/J mouse at 10 mg/kg, ip administered as single dose by UPLC/MS TQD analysis; type: ADME, organism-based; conditions: in vivo

Sequence of Cannabinoid receptor 2 (Homo sapiens) (P34972 whole entry): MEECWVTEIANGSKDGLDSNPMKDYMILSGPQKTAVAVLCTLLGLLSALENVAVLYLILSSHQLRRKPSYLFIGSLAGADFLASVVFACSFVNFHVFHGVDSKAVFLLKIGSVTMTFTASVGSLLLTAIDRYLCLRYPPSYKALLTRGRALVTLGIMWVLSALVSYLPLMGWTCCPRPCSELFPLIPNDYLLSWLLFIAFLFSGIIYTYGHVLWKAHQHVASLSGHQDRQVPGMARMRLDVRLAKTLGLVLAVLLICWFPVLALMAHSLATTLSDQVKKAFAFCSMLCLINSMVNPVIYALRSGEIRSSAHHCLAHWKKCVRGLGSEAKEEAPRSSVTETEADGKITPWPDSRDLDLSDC
Sequence of Vasopressin V1a receptor (Homo sapiens) (P37288 whole entry, looked up): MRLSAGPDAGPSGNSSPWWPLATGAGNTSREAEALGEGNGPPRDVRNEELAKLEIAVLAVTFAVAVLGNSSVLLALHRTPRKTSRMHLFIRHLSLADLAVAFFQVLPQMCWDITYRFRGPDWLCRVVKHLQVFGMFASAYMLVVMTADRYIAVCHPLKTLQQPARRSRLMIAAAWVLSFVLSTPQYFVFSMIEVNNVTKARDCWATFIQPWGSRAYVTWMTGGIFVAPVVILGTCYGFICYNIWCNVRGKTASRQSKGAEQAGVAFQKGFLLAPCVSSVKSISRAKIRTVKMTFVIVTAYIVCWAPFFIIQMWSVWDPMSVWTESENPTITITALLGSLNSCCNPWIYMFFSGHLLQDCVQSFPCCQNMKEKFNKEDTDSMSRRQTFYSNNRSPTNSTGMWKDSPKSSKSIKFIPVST
T1 sequence (P51787 whole entry): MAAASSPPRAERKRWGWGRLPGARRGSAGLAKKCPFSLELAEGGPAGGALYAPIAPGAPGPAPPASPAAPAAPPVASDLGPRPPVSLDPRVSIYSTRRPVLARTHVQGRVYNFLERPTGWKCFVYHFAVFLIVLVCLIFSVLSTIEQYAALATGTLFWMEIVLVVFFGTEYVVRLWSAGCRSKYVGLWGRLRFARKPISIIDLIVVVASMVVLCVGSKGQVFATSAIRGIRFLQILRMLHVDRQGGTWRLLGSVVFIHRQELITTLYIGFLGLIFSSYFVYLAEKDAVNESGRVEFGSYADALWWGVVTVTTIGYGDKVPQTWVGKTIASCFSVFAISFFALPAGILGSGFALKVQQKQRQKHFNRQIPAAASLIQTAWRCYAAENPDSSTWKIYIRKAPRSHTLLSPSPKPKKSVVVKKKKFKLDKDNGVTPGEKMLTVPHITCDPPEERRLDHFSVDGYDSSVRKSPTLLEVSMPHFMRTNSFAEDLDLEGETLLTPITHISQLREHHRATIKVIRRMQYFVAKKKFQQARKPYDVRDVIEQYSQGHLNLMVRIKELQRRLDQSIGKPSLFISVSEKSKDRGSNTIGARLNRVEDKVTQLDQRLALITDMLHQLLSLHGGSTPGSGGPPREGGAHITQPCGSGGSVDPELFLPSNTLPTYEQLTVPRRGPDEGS
Sequence of Muscarinic acetylcholine receptor M3 (Homo sapiens) (P20309 whole entry, looked up): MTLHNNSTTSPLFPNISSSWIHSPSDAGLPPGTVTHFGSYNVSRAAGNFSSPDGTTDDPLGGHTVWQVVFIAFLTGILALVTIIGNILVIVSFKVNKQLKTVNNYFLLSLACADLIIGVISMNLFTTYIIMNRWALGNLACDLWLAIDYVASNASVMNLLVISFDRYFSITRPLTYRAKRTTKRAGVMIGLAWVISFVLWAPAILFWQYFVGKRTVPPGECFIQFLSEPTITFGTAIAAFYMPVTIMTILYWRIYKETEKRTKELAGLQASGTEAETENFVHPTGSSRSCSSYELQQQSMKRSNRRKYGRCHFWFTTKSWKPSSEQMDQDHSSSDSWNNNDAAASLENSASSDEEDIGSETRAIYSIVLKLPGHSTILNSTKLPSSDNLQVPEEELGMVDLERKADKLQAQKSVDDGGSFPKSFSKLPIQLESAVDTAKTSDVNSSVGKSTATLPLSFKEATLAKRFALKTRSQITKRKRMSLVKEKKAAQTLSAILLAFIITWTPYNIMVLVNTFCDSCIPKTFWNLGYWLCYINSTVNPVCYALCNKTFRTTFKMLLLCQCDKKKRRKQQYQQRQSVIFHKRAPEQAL
Sequence of Muscarinic acetylcholine receptor M1 (Homo sapiens) (P11229 whole entry): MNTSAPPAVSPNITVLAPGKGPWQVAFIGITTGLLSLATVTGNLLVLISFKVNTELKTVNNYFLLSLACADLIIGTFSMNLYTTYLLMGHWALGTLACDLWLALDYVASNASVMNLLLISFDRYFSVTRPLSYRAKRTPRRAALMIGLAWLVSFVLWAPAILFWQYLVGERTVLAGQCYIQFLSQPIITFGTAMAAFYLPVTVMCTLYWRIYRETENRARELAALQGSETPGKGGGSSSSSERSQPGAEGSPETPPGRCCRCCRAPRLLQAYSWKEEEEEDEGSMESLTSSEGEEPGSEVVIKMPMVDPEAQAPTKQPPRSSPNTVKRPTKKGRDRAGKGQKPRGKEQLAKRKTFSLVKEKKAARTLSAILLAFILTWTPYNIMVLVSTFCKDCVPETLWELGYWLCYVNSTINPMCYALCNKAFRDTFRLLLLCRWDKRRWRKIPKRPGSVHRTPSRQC
Sequence of Endothelin-1 receptor (Homo sapiens) (P25101 whole entry): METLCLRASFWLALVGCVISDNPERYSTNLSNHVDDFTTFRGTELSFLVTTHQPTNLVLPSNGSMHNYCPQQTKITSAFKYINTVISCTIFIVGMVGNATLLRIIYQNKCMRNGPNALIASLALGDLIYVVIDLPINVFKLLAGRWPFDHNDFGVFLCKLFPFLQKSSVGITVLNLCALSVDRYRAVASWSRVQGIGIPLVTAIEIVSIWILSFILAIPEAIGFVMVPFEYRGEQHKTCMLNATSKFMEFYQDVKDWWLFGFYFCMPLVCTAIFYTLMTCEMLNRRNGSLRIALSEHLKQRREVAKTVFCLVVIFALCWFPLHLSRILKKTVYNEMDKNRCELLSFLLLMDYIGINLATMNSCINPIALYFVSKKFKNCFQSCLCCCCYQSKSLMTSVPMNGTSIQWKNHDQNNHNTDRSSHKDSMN
Sequence of Beta-1 adrenergic receptor (Homo sapiens) (P08588 whole entry, looked up): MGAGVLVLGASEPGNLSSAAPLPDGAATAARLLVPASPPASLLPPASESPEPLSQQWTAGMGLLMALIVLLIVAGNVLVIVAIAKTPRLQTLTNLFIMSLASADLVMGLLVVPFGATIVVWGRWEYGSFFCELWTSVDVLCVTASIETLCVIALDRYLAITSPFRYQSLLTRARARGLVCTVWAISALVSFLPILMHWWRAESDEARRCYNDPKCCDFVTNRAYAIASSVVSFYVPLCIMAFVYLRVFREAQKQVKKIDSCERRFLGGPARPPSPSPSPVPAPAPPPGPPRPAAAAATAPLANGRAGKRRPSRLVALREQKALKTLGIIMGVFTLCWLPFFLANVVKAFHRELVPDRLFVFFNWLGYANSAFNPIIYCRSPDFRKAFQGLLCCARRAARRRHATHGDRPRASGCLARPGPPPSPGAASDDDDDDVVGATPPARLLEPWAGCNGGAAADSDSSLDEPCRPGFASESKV
Sequence of Delta-type opioid receptor (Homo sapiens) (P41143 whole entry): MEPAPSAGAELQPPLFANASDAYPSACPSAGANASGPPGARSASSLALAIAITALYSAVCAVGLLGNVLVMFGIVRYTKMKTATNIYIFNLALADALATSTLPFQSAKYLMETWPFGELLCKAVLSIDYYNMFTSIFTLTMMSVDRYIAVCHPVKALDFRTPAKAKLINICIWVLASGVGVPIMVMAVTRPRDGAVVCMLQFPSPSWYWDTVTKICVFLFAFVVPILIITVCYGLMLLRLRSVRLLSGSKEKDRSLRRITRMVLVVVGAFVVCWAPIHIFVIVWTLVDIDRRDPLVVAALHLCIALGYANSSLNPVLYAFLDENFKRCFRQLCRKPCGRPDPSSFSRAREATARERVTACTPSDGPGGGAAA
Sequence of Beta-2 adrenergic receptor (Homo sapiens) (P07550 whole entry, looked up): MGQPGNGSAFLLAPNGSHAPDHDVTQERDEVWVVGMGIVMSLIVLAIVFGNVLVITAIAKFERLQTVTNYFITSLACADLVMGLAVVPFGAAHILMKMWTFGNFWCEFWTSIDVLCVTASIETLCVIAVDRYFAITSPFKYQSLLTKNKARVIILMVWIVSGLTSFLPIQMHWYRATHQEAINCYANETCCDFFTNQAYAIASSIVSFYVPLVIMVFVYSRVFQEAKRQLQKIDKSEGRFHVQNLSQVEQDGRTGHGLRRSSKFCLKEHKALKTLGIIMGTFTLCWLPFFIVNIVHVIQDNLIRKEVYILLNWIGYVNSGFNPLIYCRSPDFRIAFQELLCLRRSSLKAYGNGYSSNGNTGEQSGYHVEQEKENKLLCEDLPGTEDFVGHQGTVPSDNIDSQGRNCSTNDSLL
Sequence of 5-hydroxytryptamine receptor 1B (Homo sapiens) (P28222 whole entry): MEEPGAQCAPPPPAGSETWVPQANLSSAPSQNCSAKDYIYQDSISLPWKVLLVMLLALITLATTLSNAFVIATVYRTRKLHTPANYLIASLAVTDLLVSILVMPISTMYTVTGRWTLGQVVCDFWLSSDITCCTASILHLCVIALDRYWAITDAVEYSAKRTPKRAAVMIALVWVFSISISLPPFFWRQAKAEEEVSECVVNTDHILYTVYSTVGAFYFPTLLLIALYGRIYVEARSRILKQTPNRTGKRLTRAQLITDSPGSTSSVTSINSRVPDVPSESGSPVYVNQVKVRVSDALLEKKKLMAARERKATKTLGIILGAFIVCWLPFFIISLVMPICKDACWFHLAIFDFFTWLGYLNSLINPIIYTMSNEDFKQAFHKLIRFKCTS

CN(C)c1ccc(Nc2nc(-c3ccncc3)nc3c2CC(N)CC3)cc1 (stereo not drawn)
Activity [1]: inactive
Activity [2]: inactive
Activity [3]: inactive
Activity [4]: inactive
Activity [5]: inactive
Activity [6]: inactive
inhibition (INH) [7]: Not Active
Activity [8]: inactive
Activity [9]: inactive
inhibition [10]: inactive
Activity [11]: inactive
Activity [12]: inactive
Activity [13]: inactive
Activity [14]: inactive
inhibition [15]: inactive
Activity [16]: inactive
Activity [17]: Not Active
Activity [18]: inactive
Kinetic_solubility [19]: > 250 µM
inhibition (INH) [20]: Not Active
Activity [21]: Not Active
Activity [22]: inactive
Activity [23]: inactive
inhibition [24]: inactive
Activity [25]: inactive
Activity [26]: inactive
inhibition [27]: inactive
inhibition [28]: inactive
Activity [29]: inactive
Activity [30]: inactive
Activity [31]: inactive
Activity [32]: inactive
Activity [33]: inactive
Activity [34]: inactive
Activity [35]: inactive
Activity [36]: inactive
Activity [37]: inactive
inhibition [38]: inactive
Activity [39]: inactive
inhibition (INH) [40]: Not Active
Activity [41]: inactive
Activity [42]: inactive
CL/F [43]: 116 mL/min
